Data set [1] has as its system L1210 murine lymphocytic leukemia cell line. The experiment in a line: Cytotoxic activity (cell growth inhibition, counting surviving cells) on L1210. The format is cell-based. The note with it: Mus musculus, read-out: Cytotoxicity IC50. The procedure:
The cytotoxic activity was determined against exponentially growing cells.
All the experiments were carried out twice.

The test system of data set [2] is L1210/L-PAM cells (melphalan resistant murine leukemia, high GSH). The experiment in a line: cells. The note with it: for IC50: Mus musculus, L1210/LPAM, 48 h, read-out: Cytotoxicity IC50; for Cytotoxicity on L1210/L-PAM cells in respect to L1210 cells: comparison of IC50 on the two cell lines. How it is done:
The cytotoxic activity was determined on L1210 murine lymphocytic leukemia cell line and on the L-PAM resistant cell subline L1210/L-PAM. Cells were grown in vitro as stabilized suspension cultures.L1210 cells were maintained in RPMI 1640 medium containing β-mercaptoethanol (10 μM). L1210/L-PAM cells were maintained in RPMI 1640 medium containing β-mercaptoethanol (50 μM). All culture media (Biowhittaker, UK) were supplemented with 10% Fetal Calf Serum (Biological Industries, Israel) and 2 mM L-glutamine (Biowhittaker, UK).
The cytotoxic activity was determined against exponentially growing cells. L1210 and L1210/L-PAM cells were seeded in 24 well-plates at concentration of 50,000 cells/ml and immediately treated for 48 h with the drug.
The inhibition of cell growth was evaluated by counting surviving cells with a Coulter Counter. The antiproliferative activity of drugs was calculated from dose-response curves and expressed as IC50 (concentration inhibiting 50% cell growth in treated cultures relative to untreated controls). All the experiments were carried out twice.

Data set [3] relates to A2780 human ovarian carcinoma cell line. The data set is described as follows: Cytotoxicity (growth inhibition) on A2780 cells with or without BSO pretreatment. The format is cell-based. The procedure: (§1) Further evidence of the relevance of GSH levels for the cytotoxicity of the compounds of formula (I) has been obtained by determining the influence of prior treatment with BSO (L-S.R buthionine sulphoximine) on the susceptibility of A2780 human ovarian cells to their cytotoxic and apoptotic effect.
(§2) The cytotoxic activity was determined on A2780 human ovarian carcinoma cell line.
(§3) The cytotoxic activity was determined against exponentially growing cells. A2780 cells were seeded in 6 well-plates at concentration of 100,000 cells/ml for 2 ml and incubated for 24 h with the GSH inhibitor BSO and finally exposed to different concentrations of PNU 166196 (untreated cells were incubated with the medium only).
(§4) After 24 h treatment with the drug, cell growth inhibition was evaluated on the monolayer cells whereas the floating cells were used for morphology evaluation.

Data set [4] shares this test system. The experiment in a line: Apoptotic effect (cells with apoptotic morphology, fluorescence microscopy) on A2780 cells with or without BSO pretreatment. In kind it is cell-based. The procedure: as §1, §2, §3, §4
Apoptosis was evaluated by fluorescence microscopy. At the end of the treatment, floating cells were collected, washed in PBS, fixed in 70% ice-cold ethanol and stored at −20° C. until analysis (5 days max.). Cells were then centrifuged and the pellets were stained with 50 μg/ml propidium iodide, 0.001% Nonidet P40 and 60 U/ml Rnase and stored in the dark for 30 minutes at 37° C. Cells were centrifuged and the pellets were resuspended in […]. At least 600 cells randomly chosen from 2 smears independently prepared were examined for their nuclear morphology changes (chromatin condensation and DNA fragmentation) using a fluorescence microscope [see Int. J. Cancer 65:491–497 (1996)]. All the experiments were carried out twice. Results are reported per the enclosed table II and comments thereof.

Setting [5] is: A2780, BSO alone (dose printed MM).
Setting [6] is: L1210 cells (GSH 7.7 nmole/10^6 cells), 48 h incubation.

Converted amounts (≈) assume the structure as drawn. “And” between values parts separate entries of the source, which are not always exact repeats. Equal entries are not always repeated. Where two headings read alike, the source gives them in different places.

In general, IC50 refers to the point on the concentration scale where inhibition reaches its midpoint. In the case of `Cn1cc(NC(=O)c2cc(NC(=O)c3cc(NC(=O)c4ccc(N(CCCl)CCCl)cc4)cn3C)cn2C)cc1C(=O)NCCC(=N)N` [Tallimustine, 3-[1-methyl-4-[1-methyl-4-[1-methyl-4-[1-methyl-4-[N,N-bis(2-chloroethyl)amino]benzenecarboxamindo]pyrrole-2-carboxamido]pyrrole-2-carboxamido]pyrrole-2-carboxamido]propionamidine], the IC50 in data set [1] (L1210, 48 h) stood at 0.0225 µg/mL (≈ 0.0323 µM). For the same molecule, in data set [2], the IC50 turned out to be 0.0274 µg/mL (≈ 0.0393 µM) and the “Cytotoxicity on L1210/L-PAM cells in respect to L1210 cells” value is “comparable”.
`CCCCS(=N)(=O)CCC(N)C(=O)O` [BSO, L-S.R buthionine sulphoximine, reference compound]: the Growth inhibition % in data set [3] (setting [5]) amounted to 2.5 ± 0.2%. In addition, in data set [4] (setting [5]), the Apoptosis % came to 0%.
Take `C=C(Br)C(=O)Nc1cc(C(=O)Nc2cc(C(=O)Nc3cc(C(=O)Nc4cc(C(=O)NCCC(=N)N)n(C)c4)n(C)c3)n(C)c2)n(C)c1.Cl` [PNU 151807, N-(5-{[(5-{[(5-{[(3-amino-3-iminopropyl)amino]carbonyl}-1-methyl-1H-pyrrol-3-yl)amino]carbonyl}-1-methyl-1H-pyrrol-3-yl)amino]carbonyl}-1-methyl-1H-pyrrol-3-yl)-4-[(2-bromoacryloyl)amino]-1-methyl-1H-pyrrole-2-carboxamide hydrochloride]: the IC50 in data set [1] (setting [6]) came out at 0.00086 µg/mL; in data set [2], 0.00026 µg/mL.
With `N[C@@H](Cc1ccc(N(CCCl)CCCl)cc1)C(=O)O` [L-PAM, melphalan], in data set [1] (L1210, 48 h), the IC50 was 1.65 µg/mL (≈ 5.41 µM). In data set [2], the IC50 turned out to be 8.1 µg/mL (≈ 26.5 µM) and the “Cytotoxicity on L1210/L-PAM cells in respect to L1210 cells” value is on record as “lower”.
Consider `C=C(Br)C(=O)Nc1cc(C(=O)Nc2cc(C(=O)Nc3cc(C(=O)Nc4cc(C(=O)NCCNC(=N)N)n(C)c4)n(C)c3)n(C)c2)n(C)c1.Cl` [PNU 166196, N-(5-{[(5-{[(5-{[(2-{[amino(imino)methyl]amino}ethyl)amino]carbonyl}-1-methyl-1H-pyrrol-3-yl)amino]carbonyl}-1-methyl-1H-pyrrol-3-yl)amino]carbonyl}-1-methyl-1H-pyrrol-3-yl)-4-[(2-bromoacryloyl)amino]-1-methyl-1H-pyrrole-2-carboxamide hydrochloride], for which, in data set [3] (A2780), the “Cytotoxicity (percentage of growth inhibition) in BSO pretreated cells in respect to BSO-untreated ones” value is listed as “significantly decreased”. In addition, the inhibition at 0.3 µg/mL in data set [3] (Homo sapiens, A2780, A2780, 300 ng/ml, no BSO) is 43 ± 2.5%. Further, the inhibition at 1 µg/mL in data set [3] (Homo sapiens, A2780, A2780, 1000 ng/ml, no BSO) is 64.5 ± 14.5%. The inhibition at 3 µg/mL in data set [3] (Homo sapiens, A2780, read-out: Growth inhibition %, A2780, 3000 ng/ml, BSO 0.1 mM 24 h before and during treatment) was 38%; in data set [3] (Homo sapiens, A2780, read-out: Growth inhibition %, A2780, 3000 ng/ml, no BSO), 77.5%. The IC50 in data set [1] (setting [6]) is 0.00162 µg/mL; in data set [2], 0.00049 µg/mL. For the same molecule, the “Apoptotic effect (percentage of cells with apoptotic morphology) in BSO pretreated cells in respect to BSO-untreated ones” value in data set [4] (A2780) is “significantly decreased”. For the same molecule, the Apoptosis % was 17.5 ± 6.5% in data set [4] (A2780, 300 ng/ml, no BSO); 49.5 ± 15.5% in data set [4] (A2780, 1000 ng/ml, no BSO); 11.5% in data set [4] (A2780, 3000 ng/ml, BSO 0.1 mM 24 h before and during treatment); 74.5% and 74.5 ± 15.5% in data set [4] (A2780, 3000 ng/ml, no BSO, hydrochloride).

For the origin of these results see US7030089B2 (priority 2000, dated 2006).
